SMILES strings stand for the structures. Where “and” joins values, the source holds several entries; their conditions need not be identical. Equal entries are not always repeated. Calls of active or inactive are those of the source. The rule behind the calls is not given here.

In the assay the target is CCHF virus vOTU protease domain (L polyprotein). The experiment in a line: Crimean Congo hemorrhagic fever virus vOTU protease, Pep AMC substrate, counterscreen, confirmatory (AID 720577). Particulars: purified vOTU, fluorescence. In general terms: A counterscreen serves to expose hits that act by an unwanted route or on another target.
What is called IC50 is the concentration that inhibits the measured activity by half. With `COC1=CC(=O)c2c(ccc3ncnc(N)c23)C1=O`, the IC50 is 0.853 µM. As to `CCn1nc(/C=C/c2ccccc2)nc2c(=O)n(C)c(=O)nc1-2`, the IC50 was 0.487 µM. As for `CCc1ccc(S(=O)(=O)/N=C2\C=C(Nc3cccc(C(=O)O)c3)C(=O)c3ccccc32)cc1`, the figure is 2.51 µM. Regarding `O=C(c1ccccc1)c1coc2c1C(=O)c1ccccc1C2=O`, the IC50 result was “inactive”. `Cc1ccccc1-c1cc2c(nn1)-c1ccccc1C2=O`: the IC50 was 2.23 µM.

As for `Oc1c(C=Nc2cccc3nsnc23)ccc2ccccc12`, the IC50 entry was “inactive”.

Consider `Cc1ccc(CNc2ccc(O)cc2)cc1`, for which the IC50 result is “inactive”. On to `O=C(COC(=O)c1ccc([N+](=O)[O-])s1)Nc1ccc(F)cc1`, for which the IC50 entry is “inactive”. Consider `CN1CCN(C2=C(Cl)C(=O)c3ccccc3C2=O)CC1`, for which the IC50 was 1.07 µM. To `Cc1cc(C)c(S(=O)(=O)/N=C2\C=C(Nc3ccc(C(=O)O)cc3)C(=O)c3ccccc32)c(C)c1` belongs 4.54 µM; to `CC(=O)N(/N=C1\Sc2ccccc2C1=O)c1ccccc1C`, “inactive”. As for `CCCCCCCCCCCCN1[C@@H](CC(=O)O)c2cc(F)ccc2S1(=O)=O`, the entry is “inactive”. Take `CCOC(=O)c1c(C)[nH]c2c1-c1ccccc1C(=O)C2=O`: the IC50 is 0.662 µM. In the case of `O=[N+]([O-])c1cc(O)c2ncccc2c1`, the IC50 result is “inactive”. In the case of `COc1cc(NC(C)CCCN)c2ncccc2c1` (stereo unspecified), the IC50 entry was “inactive”.

Turning to `C=CCN(CC=C)C(=S)Nc1ccc2nsnc2c1`, the IC50 entry is “inactive”. With `O=C(O)c1ccc(S(=O)(=O)/N=C2\C=C(Nc3ccccc3F)C(=O)c3ccccc32)cc1`, the concentration for half-maximal inhibition (IC50) is 1.24 µM.

On to `CCCCCCCCCCCCCCCC[n+]1cccc2ccccc21`, for which the IC50 is 4.2 µM.

With `O=C1NNC(c2ccccc2)=N/C1=C\c1ccccc1Cl`, the IC50 result is “inactive”. For `COC1=C(Br)C(=O)c2nc(C)ccc2C1=O`, the IC50 entry was “inactive”. For the compound `O=C1C=C(N2CCOCC2)c2ccccc2C1=O`, the IC50 result was “inactive”. Turning to `COc1cc2c(cc1OC)-c1c(OC)c(OC)cc3c1[C@H](C2)N(C)CC3`, the IC50 is > 12.7 µM (inactive). To `C=CCN1C=CC(=C/C=C(/C#N)C(=O)OCC)C=C1` belongs “inactive”. In the case of `CCCCn1c(NS(=O)(=O)c2ccccc2)c(C(=O)OCC)c2nc3ccccc3nc21`, the IC50 is > 115 µM (inactive). Turning to `O=C1Nc2ccc([N+](=O)[O-])cc2C1=Nc1cccc(CO)c1`, the IC50 entry was “inactive”. For `CCOC(=O)c1cc2c(=Cc3ccc(N(C)C)cc3)c3ccccc3n2[n+]1C`, the IC50 was 5.69 µM.

`CN1/C(=C\C=C2C(=O)NC(=O)NC2=O)C(C)(C)c2ccccc21`: the IC50 entry is “inactive”. `O=C1C(=NO)CCc2ccccc21`: the IC50 result was “inactive”. As to `CC(=O)c1ccc(NC2=C(N3CCOCC3)C(=O)c3ccccc3C2=O)cc1`, the IC50 entry was “inactive”. Turning to `CCCCCCCCCCCCCCCC[n+]1ccccc1`, the 50% inhibitory concentration (IC50) was 7.79 µM and 8.46 µM and 6.99 µM. With `O=C1OC(Nc2cc(Br)cc3cccnc23)c2ccccc21` (stereo unspecified), the 50% inhibitory concentration (IC50) was 5.44 µM. As for `Oc1c(N=Nc2nn[nH]n2)ccc2ccccc12`, the IC50 result is “inactive”.

Regarding `Cc1cc(NC2=CC(=O)C(=O)c3ccccc32)no1`, the IC50 result is “inactive”.

As to `O=C1C=C(Nc2ccccc2)c2ccccc2C1=O`, the IC50 result is “inactive”. As for `O=C1C(=O)c2ccccc2-c2ccccc21`, the figure is 3.75 µM; as for `CCCCCCCCCCOC(=O)Cn1c(COc2ccc(Cl)cc2)[n+](C)c2ccccc21`, 6.42 µM; as for `C=CCN1C(=O)/C(=C/c2ccc(OC(C)=O)c(OCC)c2[N+](=O)[O-])SC1=S`, “inactive”. `Cc1ccccc1NC1=C/C(=N\S(=O)(=O)c2ccc(C(=O)O)cc2)c2ccccc2C1=O`: the concentration for half-maximal inhibition (IC50) was 0.536 µM. On to `Nc1ccc(N2CCCCC2)c2nonc12`, for which the IC50 result was “inactive”. As to `O=C(NC1=C(NC2CCS(=O)(=O)C2)C(=O)c2ccccc2C1=O)c1ccccc1` (stereo unspecified), the IC50 result is “inactive”. Turning to `COC(=O)c1nc(-c2ccc3c(n2)C(=O)C(N)=C(OC)C3=O)c(N)c(-c2ccc(OC)c(OC)c2O)c1C`, the concentration for half-maximal inhibition (IC50) was 2.58 µM. As to `CC(=O)[C@@H]1[C@@H]2C(=O)N(c3ccc(F)c(Cl)c3)C(=O)[C@@H]2C2c3ccccc3C=CN21` (stereo partly specified), the IC50 result is “inactive”. For the compound `CCCNC1=C(N(C(C)=O)c2cccc(F)c2)C(=O)c2ccccc2C1=O`, the IC50 was > 12.7 µM (inactive). For the compound `CC1OC(CC(=O)O)CC2=C1C(=O)c1c(O)cccc1C2=O` (stereo unspecified), the IC50 entry is “inactive”. Consider `C[n+]1cccc2cccc([O-])c21`, for which the IC50 result was “inactive”.

For `O=C(c1ccco1)[C@@H]1[C@@H]2C(=O)N(c3ccc(Br)cc3)C(=O)[C@@H]2C2c3ccccc3C=CN21` (stereo partly specified), the IC50 entry is “inactive”. As to `CCOC(=O)/C=C(\C)Sc1cc(O)c2ccccc2c1O`, the IC50 was 4.61 µM. As to `COc1cccc2c1C(=O)c1c(O)c3c(c(O)c1C2=O)C[C@@](O)(C(=O)CO)C[C@@H]3O[C@H]1C[C@H](N)[C@H](O)[C@H](C)O1`, the IC50 entry was “inactive”. Take `C[n+]1c(-c2ccccc2)c2cc(N)ccc2c2ccc(N)cc21`: the IC50 result was “inactive”.

On to `CC1(OC(=O)C2CCCC2)C(=O)C=C2C=C(c3ccsc3)N(CCCCO)C=C2C1=O` (stereo unspecified), for which the IC50 result is “inactive”. On to `COc1ccc(/C=N/NC(=O)c2nn(-c3ccc(Cl)cc3)c(=O)c3c(N)scc23)cc1`, for which the IC50 entry was “inactive”.

As for `CC[n+]1c(-c2ccccc2)c2cc(N)ccc2c2ccc(N)cc21`, the IC50 is 3.32 µM. As for `Clc1ccc(C2=CSC3=Nc4cccc5cccc(c45)N23)cc1`, the entry is “inactive”; as for `CCCCCCCCCCCCCCCCn1cc[n+](C)c1`, 7.06 µM. Turning to `COc1cc2c(cc1O)[C@@H]1Cc3ccc(OC)c(O)c3CN1CC2`, the IC50 entry was “inactive”. Regarding `O=C1C=C(N2CC2)c2ccccc2C1=O`, the IC50 was 8.1 µM. Consider `COc1ccc(C(C[N+](=O)[O-])c2c(C)[nH]n(-c3ccccc3)c2=O)cc1` (stereo unspecified), for which the IC50 was > 115 µM (inactive).

Turning to `O=C(/C=C/c1ccc([N+](=O)[O-])s1)N1CCCCC1`, the IC50 was > 115 µM (inactive). For `CC1(C)C=C2C(=NN(c3ccccc3)C(N)=C2C#N)CO1`, the IC50 result is “inactive”. `C[n+]1c(-c2ccccc2)cc2c(=Cc3ccccc3)c3ccccc3n21`: the IC50 was 3.65 µM. Regarding `CCOC(=O)c1c2c(n(Cc3ccccc3)c1C)C(=O)C(=O)c1ccccc1-2`, the IC50 is 1.49 µM. As for `COc1cc(Br)c(C(=O)c2nccc3cc(OC)c(OC)cc23)cc1OC`, the figure is 1.13 µM. `O=C(O)c1cccc(NC2=C(N3CCOCC3)C(=O)c3ccccc3C2=O)c1`: the IC50 result is “inactive”. With `Cc1ccccc1NC1=C/C(=N\S(=O)(=O)c2cccs2)c2ccccc2C1=O`, the IC50 is 1.04 µM.

In the case of `CC(=O)N(C1=C(Cl)C(=O)c2ccccc2C1=O)C1CCCCC1`, the IC50 entry is “inactive”. As for `CC(C)=CCC1=C(OCC(=O)O)C(=O)c2ccccc2C1=O`, the IC50 entry is “inactive”. Regarding `COc1cc2c(cc1OC)-c1c(OC)c(OC)cc3c1C(C2)N(C)CC3` (stereo unspecified), the IC50 is > 115 µM (inactive).

Regarding `Cc1ccc(NC2=C/C(=N/S(=O)(=O)c3cccs3)c3ccccc3C2=O)cc1`, the IC50 is 1.79 µM. As for `CC(=O)Nc1ccc(S(=O)(=O)NC2=C(N3CCN(c4ccc(F)cc4)CC3)C(=O)c3ccccc3C2=O)cc1`, the entry is “inactive”; as for `COC1=C(N)C(=O)c2nc(C)ccc2C1=O`, 4.98 µM.

As to `CN(C1=C(NC(=O)c2ccccc2)C(=O)c2ccccc2C1=O)C1CCS(=O)(=O)C1` (stereo unspecified), the half-maximal inhibitory concentration (IC50) is 9.59 µM.

For `c1coc(-c2nnc(-c3ccco3)nn2)c1`, the IC50 entry is “inactive”. Turning to `CC(=O)c1ccc(NC(=S)Nc2cccc3cnccc23)cc1`, the IC50 is 7.69 µM.

Regarding `CCCCCCCCN1C(=O)[C@@H](CC(=O)NCCCOCCCC)C[C@@]2(C(=O)OC)C1=C[C@H](C(C)C)O[C@@H]2C1CC1`, the IC50 entry was “inactive”. With `Cc1cc2c(cc1C)C(=O)C(Br)=C(N)C2=O`, the IC50 result was “inactive”. Consider `CN(C)S(=O)(=O)c1cccc(NC(=S)Nc2cccc3cnccc23)c1`, for which the IC50 result was “inactive”.

Regarding `COc1ccccc1Nc1cc2cc(Br)ccc2c(=O)[nH]1`, the IC50 is 1.36 µM. With `COCCN1C=C2C(=O)C(C)(OC(=O)C3CCCC3)C(=O)C(c3ccccc3)=C2C=C1CCCC(=O)OC` (stereo unspecified), the IC50 result was “inactive”. With `NS(=O)(=O)c1ccc(NC2=CC(=O)C(=O)c3ccccc32)cc1`, the IC50 result is “inactive”. As to `CN(C)c1ncc(C2=C(Cl)C(=O)C(N3CCCC3)=C(Cl)C2=O)s1`, the IC50 result was “inactive”. As for `Cc1cnc(C2OCCO2)c2cccc(N)c12`, the figure is 5.37 µM; as for `Cc1cccc(NC(=O)c2sc3nc4c(c(-c5cccs5)c3c2N)CN(C)CC4)c1`, “inactive”; as for `CC(C)NC1=C(Cl)C(=O)c2ccccc2C1=O`, “inactive”. To `CN=c1sc2c(n1C)C(=O)c1ccccc1C2=O` belongs 5.75 µM; to `CCc1ccc(S(=O)(=O)Nc2cc(SCC(=O)O)c(O)c3ccccc23)cc1`, “inactive”; to `COc1ccc(/C=N/NC(=O)c2nn(-c3ccccc3)c(=O)c3c(N)scc23)cc1`, “inactive”. In the case of `Oc1ccccc1CNc1cccc2cccnc12`, the IC50 result was “inactive”. Take `O=[N+]([O-])c1c(Nc2ccccn2)cc(Cl)c2nonc12`: the IC50 result was “inactive”. As for `COc1cc(NCCCC(C)N)c2ncccc2c1` (stereo unspecified), the figure is 4.6 µM; as for `O=C1Cc2ccccc2C(=O)N1Cc1ccccc1`, 1.3 µM. For `COc1ccc(NC(=S)Nc2ccc3nsnc3c2)cc1`, the concentration for half-maximal inhibition (IC50) was 6.9 µM. Regarding `CN(C)c1cccc2c1c(NS(=O)(=O)c1cn(C)cn1)nn2C`, the IC50 result is “inactive”. With `CC(=O)N(/N=C1\Sc2ccccc2C1=O)c1cccc(C)c1`, the IC50 result was “inactive”. In the case of `COc1ccccc1NC(=O)COC(=O)c1ccc([N+](=O)[O-])s1`, the IC50 entry is “inactive”.

On to `CN(C)CCCNc1cc(O)c2ncccc2c1`, for which the IC50 entry is “inactive”.

Consider `O=C(O)CSc1cc(NS(=O)(=O)c2ccc(Cl)cc2)c2ccccc2c1O`, for which the IC50 entry is “inactive”.

(Values after PubChem BioAssay AID720577 (The Scripps Research Institute Molecular Screening Center, 2013).)
